Source: US12630552B2, “Inhibitors of KRAS G12C” (BEIGENE, LTD., priority 2019, dated 2026)

Target: T1, KRAS (aa 1-169) G12C, C51S, C80L, C118S (Homo sapiens, UniProt P01116, C118S/C51S/C80L/G12C)
T1 construct: The KRAS (aa 1-169) G12C, C51S, C80L, C118S with a His-tag; made in house
Test: KRAS G12C SOS1-mediated nucleotide exchange / GST-cRaf RBD binding FRET assay
Type: biochemical
Conditions: GDP-loaded KRAS G12C pre-incubated with compound at 24° C. for 3 hrs; SOS1, GTPγS and GST-cRaf RBD added; FRET 665 nm/620 nm
Method: Biochemical Functional Assay:
The KRAS (aa 1-169) G12C, C51S, C80L, C118S with a His-tag was expressed, purified and loaded with GDP in house. All protein and substrate solutions were prepared in assay buffer containing 25 mM HEPES pH7.5, 10 mM MgCl2, and 0.01% Triton X-100. Purified GDP-loaded KRAS (aa 1-169) G12C, C51S, C80L, C118S protein was pre-incubated with a serially diluted compound at 24° C. for 3 hrs. Purified SOS1 (aa 564-1049) protein, GTPγS (Sigma) and GST-cRaf RBD (aa 1-149) were then added to each well and incubated at 24° C. for additional 3 hrs. […] Following the incubation, Mab Anti-6HIS-Tb cryptate (Cisbio) and Mab Anti GST-XL665 (Cisbio) were added and further incubated at 24° C. for 3 hrs. The binding interaction between active GTPγS KRAS G12C and GST-cRaf RBD brings the Tb and XL665 into close proximity enabling an increased FRET signal (Ex337 nm, Em665 nm/620 nm). The inhibition percentage of nucleotide exchange reaction in presence of increasing concentrations of compounds was calculated based on the ratio of fluorescence at 665 nm to that at 620 nm detected on a BMG PHERAstar FSX instrument. The IC50 value of each compound was calculated from fitting the data to the four-parameter logistic model by Dotmatics.

T1 sequence (P01116 1-169 isoform P01116-2 G12C/C51S/C80L/C118S): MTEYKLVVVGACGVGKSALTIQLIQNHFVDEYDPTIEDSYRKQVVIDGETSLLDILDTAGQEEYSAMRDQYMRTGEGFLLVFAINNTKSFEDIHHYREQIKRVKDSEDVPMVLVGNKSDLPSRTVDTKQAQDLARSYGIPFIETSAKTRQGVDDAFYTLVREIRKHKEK

SMILES	IC50 [nM]
C=CC(=O)N1CCN(c2nc(OCC3CCCN3C)nc3c2CN(C2Cc4cccc5cccc2c45)C3)CC1CC#N (single isomer, unassigned) [Example 15 (P1)]	492
C=CC(=O)N1CCN(c2nc(OCC3CCCN3C)nc3c2CN(C2Cc4cccc5cccc2c45)C3)CC1CC#N (single isomer, unassigned) [Example 15 (P2)]	5.27
C=CC(=O)N1CCN(c2nc(N3CC(N(C)C)C3)nc3c2CN(C2Cc4cccc5cccc2c45)C3)CC1CC#N (single isomer, unassigned) [Example 16 (P1)]	5650
C=CC(=O)N1CCN(c2nc(N3CC(N(C)C)C3)nc3c2CN(C2Cc4cccc5cccc2c45)C3)CC1CC#N (single isomer, unassigned) [Example 16 (P2)]	256
C=CC(=O)N1CCN(c2nc(OC3CCN(C)CC3)nc3c2CN(C2Cc4cccc5cccc2c45)C3)CC1CC#N (single isomer, unassigned) [Example 17 (P1)]	2200
C=CC(=O)N1CCN(c2nc(OC3CCN(C)CC3)nc3c2CN(C2Cc4cccc5cccc2c45)C3)CC1CC#N (single isomer, unassigned) [Example 17 (P2)]	949
C=CC(=O)N1CCN(c2nc(OC[C@@H]3CCCN3C)nc3c2CN(Cc2cccc4ccccc24)C3)CC1 [Example 1, (S)-1-(4-(2-((1-methylpyrrolidin-2-yl)methoxy)-6-(naphthalen-1-ylmethyl)-6,7-dihydro-5H-pyrrolo[3,4-d]pyrimidin-4-yl)piperazin-1-yl)prop-2-en-1-one]	3280
CN(C)C/C=C/C(=O)N1CCN(c2nc(OC[C@@H]3CCCN3C)nc3c2CN(Cc2cccc4ccccc24)C3)CC1 [Example 2, (S, E)-4-(dimethylamino)-1-(4-(2-((1-methylpyrrolidin-2-yl)methoxy)-6-(naphthalen-1-ylmethyl)-6,7-dihydro-5H-pyrrolo[3,4-d]pyrimidin-4-yl)piperazin-1-yl)but-2-en-1-one]	46000
C=CS(=O)(=O)N1CCN(c2nc(OC[C@@H]3CCCN3C)nc3c2CN(Cc2cccc4ccccc24)C3)CC1 [Example 3, (S)-2-((1-methylpyrrolidin-2-yl)methoxy)-6-(naphthalen-1-ylmethyl)-4-(4-(vinylsulfonyl)piperazin-1-yl)-6,7-dihydro-5H-pyrrolo[3,4-d]pyrimidine]	23700
C=CC(=O)N1CCN(c2nc(OC[C@@H]3CCCN3C)nc3c2CN(Cc2cccc(C)c2C)C3)C[C@@H]1CC#N [Example 5, 2-((S)-1-acryloyl-4-(6-(2,3-dimethylbenzyl)-2-(((S)-1-methylpyrrolidin-2-yl)methoxy)-6,7-dihydro-5H-pyrrolo[3,4-d]pyrimidin-4-yl)piperazin-2-yl)acetonitrile]	56.1
C=CC(=O)N1CCN(c2nc(OC[C@@H]3CCCN3C)nc3c2CN(Cc2cccc4ccccc24)C3)C[C@@H]1CC#N [Example 6, 2-((S)-1-acryloyl-4-(2-(((S)-1-methylpyrrolidin-2-yl)methoxy)-6-(naphthalen-1-ylmethyl)-6,7-dihydro-5H-pyrrolo[3,4-d]pyrimidin-4-yl)piperazin-2-yl)acetonitrile]	27.7
C=CC(=O)N1CCN(c2nc(OC[C@@H]3CCCN3C)nc3cn(Cc4cccc5ccccc45)cc23)C[C@@H]1CC#N [Example 7, 2-((S)-1-acryloyl-4-(2-(((S)-1-methylpyrrolidin-2-yl)methoxy)-6-(naphthalen-1-ylmethyl)-6H-pyrrolo[3,4-d]pyrimidin-yl)piperazin-2-yl)acetonitrile]	174
C=CC(=O)N1CCN(c2nc(OC[C@@H]3CCCN3C)nc3c2CN(Cc2cccc4cccc(C)c24)C3)C[C@@H]1CC#N [Example 8, 2-((S)-1-acryloyl-4-(6-((8-methylnaphthalen-1-yl)methyl)-2-(((S)-1-methylpyrrolidin-2-yl)methoxy)-6,7-dihydro-5H-pyrrolo[3,4-d]pyrimidin-4-yl)piperazin-2-yl)acetonitrile]	495
C=CC(=O)N1CCN(c2nc(OC[C@@H]3CCCN3C)nc3c2CN(Cc2cccc4cccc(Cl)c24)C3)C[C@@H]1CC#N [Example 9, 2-((S)-1-acryloyl-4-(6-((8-chloronaphthalen-1-yl)methyl)-2-(((S)-1-methylpyrrolidin-2-yl)methoxy)-6,7-dihydro-5H-pyrrolo[3,4-d]pyrimidin-4-yl)piperazin-2-yl)acetonitrile]	265
C=CC(=O)N1CCN(c2nc(OC[C@@H]3CCCN3C)nc3c2CN(Cc2ccc(F)c4ccccc24)C3)C[C@@H]1CC#N [Example 10, 2-((S)-1-acryloyl-4-(6-((4-fluoronaphthalen-1-yl)methyl)-2-(((S)-1-methylpyrrolidin-2-yl)methoxy)-6,7-dihydro-5H-pyrrolo[3,4-d]pyrimidin-4-yl)piperazin-2-yl)acetonitrile]	415
C=CC(=O)N1CCN(c2nc(OC[C@@H]3CCCN3C)nc3c2CN(C(C)c2cccc4ccccc24)C3)C[C@@H]1CC#N (stereo partly drawn) [Example 11, 2-((2S)-1-acryloyl-4-(2-(((S)-1-methylpyrrolidin-2-yl)methoxy)-6-(1-(naphthalen-1-yl)ethyl)-6,7-dihydro-5H-pyrrolo[3,4-d]pyrimidin-4-yl)piperazin-2-yl)acetonitrile]	170
C=CC(=O)N1CCN(c2nc(OC3CCN(C4CCOCC4)CC3)nc3c2CN(C2Cc4cccc5cccc2c45)C3)C[C@@H]1CC#N (stereo partly drawn) [Example 12, 2-((2S)-1-acryloyl-4-(6-(1,2-dihydroacenaphthylen-1-yl)-2-((1-(tetrahydro-2H-pyran-4-yl)piperidin-4-yl)oxy)-6,7-dihydro-5H-pyrrolo[3,4-d]pyrimidin-4-yl)piperazin-2-yl)acetonitrile]	379
C=CC(=O)N1CCN(c2nc(OC3CCN(C)CC3)nc3c2CN(Cc2cccc4ccccc24)C3)C[C@@H]1CC#N [Example 18, (S)-2-(1-acryloyl-4-(2-((1-methylpiperidin-4-yl)oxy)-6-(naphthalen-1-ylmethyl)-6,7-dihydro-5H-pyrrolo[3,4-d]pyrimidin-4-yl)piperazin-2-yl)acetonitrile]	1560
C=CC(=O)N1CCN(c2nc(N3CC(N(C)C)C3)nc3c2CN(Cc2cccc4ccccc24)C3)C[C@@H]1CC#N [Example 19, (S)-2-(1-acryloyl-4-(2-(3-(dimethylamino)azetidin-1-yl)-6-(naphthalen-1-ylmethyl)-6,7-dihydro-5H-pyrrolo[3,4-d]pyrimidin-4-yl)piperazin-2-yl)acetonitrile]	976
C=CC(=O)N1CCN(c2nc(OC[C@@H]3CCCN3C)nc3c2CN(Cc2ccc4ccccc4c2)C3)C[C@@H]1CC#N [Example 20, 2-((S)-1-acryloyl-4-(2-(((S)-1-methylpyrrolidin-2-yl)methoxy)-6-(naphthalen-2-ylmethyl)-6,7-dihydro-5H-pyrrolo[3,4-d]pyrimidin-4-yl)piperazin-2-yl)acetonitrile]	2880
C=CC(=O)N1CCN(c2nc(OC[C@@H]3CCCN3C)nc3c2CN(Cc2cccc4c2CCO4)C3)C[C@@H]1CC#N [Example 21, 2-((S)-1-acryloyl-4-(6-((2,3-dihydrobenzofuran-4-yl)methyl)-2-(((S)-1-methylpyrrolidin-2-yl)methoxy)-6,7-dihydro-5H-pyrrolo[3,4-d]pyrimidin-4-yl)piperazin-2-yl)acetonitrile]	92.5
